Where two headings read alike, the source gives them in different places.
Assays:
human O-GlcNAcase = human O-GlcNAcase (Homo sapiens (Human), UniProt O60502); assay: biochemical; format: biochemical; settings: read-out: OGA KI
[1] = Assay for determination of apparent permeability (Papp), bi-directional transport; settings: pig, LLC-PK1
LLC-PK1 cells = assay: as above; settings: comparative compounds described in PCT/US11/059668; LLC-PK1 cells
[2] = target: O-GlcNAcase in rat PC-12 cells (Rattus norvegicus (Rat), UniProt Q8VIJ5); assay: cell-based
Excerpt: Assay for Determination of Cellular Activity for Compounds that Inhibit O-GlcNAcase Activity
Inhibition of O-GlcNAcase, which removes O-GlcNAc from cellular proteins, results in an increase in the level of O-GlcNAcylated protein in cells. An increase in O-GlcNAcylated protein can be measured by an antibody, such as RL-2, that binds to O-GlcNAcylated protein. The amount of O-GlcNAcylated protein:RL2 antibody interaction can be measured by enzyme linked immunosorbant assay (ELISA) procedures.
A variety of tissue culture cell lines, expressing endogenous levels of O-GlcNAcase, can be utilized; examples include rat PC-12, and human U-87, or SK-N-SH cells. In this assay, rat PC-12 cells were plated in 96-well plates with approximately 10,000 cells/well. Compounds to be tested were dissolved in DMSO, either 2 or 10 mM stock solution, and then diluted with DMSO and water in a two-step process using a Tecan workstation. […] To prepare a cell lysate, the media from compound treated cells was removed, the cells were washed once with phosphate buffered saline (PBS) and then lysed for 5 minutes at room temperature in 50 μL of Phosphosafe reagent (Novagen Inc, Madison, Wis.) with protease inhibitors and PMSF. The cell lysate was collected and transferred to a new plate, which was then either coated to assay plates directly or frozen −80° C. until used in the ELISA procedure. If desired, the total protein concentration of samples is determined using 20 μL of the sample using the BCA method.
The plate was sealed and incubated at 37° C. for 2 hr with gentle shaking. The wells were then washed 3-times with 300 μl/well wash buffer. […] The plate was incubated for 60 min at 37° C. with gentle shaking. Each well was then washed 3-times with 300 μl/well wash buffer. The detection reagent was added, 100 μL/well of Amplex Ultra RED reagent (prepared by adding 30 μL of 10 mM Amplex Ultra Red stock solution to 10 ml PBS with 18 μL 3% hydrogen peroxide, H2O2). The detection reaction was incubated for 15 minutes at room temperature and then read with excitation at 530 nm and emission at 590 nm.

[3] = comparative compounds described in PCT/US11/059668
[4] = purified human O-GlcNAcase 0.7 nM, pH 7.0, room temperature, Cheng-Prusoff
[5] = rat PC-12 cells, 24 hours treatment, increase in O-GlcNAcylated protein, read-out: Cell based ELISA EC50

O-GlcNAcase in rat PC-12 cells, sequence (Q8VIJ5 whole entry): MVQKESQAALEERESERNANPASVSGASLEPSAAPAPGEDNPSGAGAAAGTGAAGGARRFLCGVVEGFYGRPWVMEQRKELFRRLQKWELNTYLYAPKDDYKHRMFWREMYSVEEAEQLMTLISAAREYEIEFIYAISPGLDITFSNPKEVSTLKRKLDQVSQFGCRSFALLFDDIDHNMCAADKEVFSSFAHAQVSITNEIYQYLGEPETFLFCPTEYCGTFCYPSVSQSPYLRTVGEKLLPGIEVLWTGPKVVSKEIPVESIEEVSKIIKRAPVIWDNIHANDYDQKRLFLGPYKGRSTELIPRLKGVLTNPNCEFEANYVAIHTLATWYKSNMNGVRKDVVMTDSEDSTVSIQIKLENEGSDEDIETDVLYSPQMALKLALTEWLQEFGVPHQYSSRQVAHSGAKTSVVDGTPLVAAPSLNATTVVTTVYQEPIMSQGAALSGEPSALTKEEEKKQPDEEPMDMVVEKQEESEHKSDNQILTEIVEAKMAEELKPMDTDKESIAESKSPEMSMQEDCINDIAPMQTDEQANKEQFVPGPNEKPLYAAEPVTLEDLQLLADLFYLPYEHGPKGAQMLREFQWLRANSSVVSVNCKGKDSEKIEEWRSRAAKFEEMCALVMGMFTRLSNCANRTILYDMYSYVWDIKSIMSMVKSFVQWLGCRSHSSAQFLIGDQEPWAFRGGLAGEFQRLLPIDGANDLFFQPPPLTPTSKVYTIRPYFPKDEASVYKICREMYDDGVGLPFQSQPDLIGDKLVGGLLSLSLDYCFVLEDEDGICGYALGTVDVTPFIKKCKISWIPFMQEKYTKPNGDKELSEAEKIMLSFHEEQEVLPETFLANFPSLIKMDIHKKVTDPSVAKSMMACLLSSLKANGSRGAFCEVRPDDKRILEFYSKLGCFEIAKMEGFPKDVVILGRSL
human O-GlcNAcase, sequence (O60502 whole entry): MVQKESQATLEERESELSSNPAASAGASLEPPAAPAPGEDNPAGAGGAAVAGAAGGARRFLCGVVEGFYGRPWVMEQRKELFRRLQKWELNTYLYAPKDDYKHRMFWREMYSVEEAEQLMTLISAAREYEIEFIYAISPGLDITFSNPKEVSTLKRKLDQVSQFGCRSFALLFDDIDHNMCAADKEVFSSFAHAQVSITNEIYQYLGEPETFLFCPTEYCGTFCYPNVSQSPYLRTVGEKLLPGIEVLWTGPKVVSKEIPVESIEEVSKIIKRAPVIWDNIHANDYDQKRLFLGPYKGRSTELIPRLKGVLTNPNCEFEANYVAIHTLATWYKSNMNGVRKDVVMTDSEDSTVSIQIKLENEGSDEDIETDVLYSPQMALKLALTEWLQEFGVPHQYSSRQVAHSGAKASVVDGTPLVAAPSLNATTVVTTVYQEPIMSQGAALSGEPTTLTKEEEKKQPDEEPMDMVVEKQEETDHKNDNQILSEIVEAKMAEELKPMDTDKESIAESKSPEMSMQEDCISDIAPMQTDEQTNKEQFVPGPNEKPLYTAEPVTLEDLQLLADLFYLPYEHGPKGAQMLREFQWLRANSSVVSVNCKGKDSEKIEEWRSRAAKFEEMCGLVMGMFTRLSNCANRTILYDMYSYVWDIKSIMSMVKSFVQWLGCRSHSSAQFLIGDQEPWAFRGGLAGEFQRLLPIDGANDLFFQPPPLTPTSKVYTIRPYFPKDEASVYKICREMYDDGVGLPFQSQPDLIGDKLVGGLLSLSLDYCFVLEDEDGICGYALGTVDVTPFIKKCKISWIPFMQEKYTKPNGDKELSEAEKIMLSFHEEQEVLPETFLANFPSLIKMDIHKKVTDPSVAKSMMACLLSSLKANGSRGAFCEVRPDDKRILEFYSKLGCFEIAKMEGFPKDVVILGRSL

Row | Structure (SMILES) | Ki (human O-GlcNAcase) [nM] | Papp at 3 h, 1 μM [1] [×10⁻⁶ cm/s] | Papp (X10-6 cm/sec) (LLC-PK1 cells) | Ki (human O-GlcNAcase; [3]) [nM] | Ki (human O-GlcNAcase; [4]) [nM] | EC50 [2, 5] [nM] | EC50 [2] [nM]
1 | CN(C)C1=N[C@@H]2[C@@H](O)[C@H](O)[C@@H]([C@H](OCc3ccccc3F)C(F)(F)F)O[C@@H]2S1 [Example 62, (3aR,5S,6S,7R,7aR)-2-(dimethylamino)-5-((S)-2,2,2-trifluoro-1-(2-fluorobenzyloxy)ethyl)-5,6,7,7a-tetrahydro-3aH-pyrano[3,2-d]thiazole-6,7-diol] | 0.96 | 31.1 | 1.7 X10-6 cm/sec | – | – | – | –
2 | CNC1=N[C@@H]2[C@@H](O)[C@H](O)[C@@H]([C@H](C)OC)O[C@@H]2S1 [Example 111, (3aR,5S,6S,7R,7aR)-5-((S)-1-methoxyethyl)-2-(methylamino)-5,6,7,7a-tetrahydro-3aH-pyrano[3,2-d]thiazole-6,7-diol] | – | – | 2.7 X10-6 cm/sec | 4.26 | – | – | –
3 | CN(C)C1=N[C@@H]2[C@@H](O)[C@H](O)[C@@H]([C@@H](OCc3ccc(F)cc3)C(F)(F)F)O[C@@H]2S1 [Example 65] | – | 28.8 | – | – | 1.02 | 27.7 | –
4 | CN(C)C1=N[C@@H]2[C@@H](O)[C@H](O)[C@@H]([C@@H](OCCC3CCCCC3)C(F)(F)F)O[C@@H]2S1 [Example 34, (3aR,5S,6S,7R,7aR)-5-((R)-1-(2-cyclohexylethoxy)-2,2,2-trifluoroethyl)-2-(dimethylamino)-5,6,7,7a-tetrahydro-3aH-pyrano[3,2-d]thiazole-6,7-diol] | – | 33.3 | – | – | 2.27 | 46.4 | –
5 | CO[C@@H](C)[C@H]1O[C@@H]2SC(N(C)C)=N[C@@H]2[C@@H](O)[C@@H]1O [Example 11, (3aR,5S,6S,7R,7aR)-2-(dimethylamino)-5-((S)-1-methoxyethyl)-5,6,7,7a-tetrahydro-3aH-pyrano[3,2-d]thiazole-6,7-diol] | – | – | 1.6 X10-6 cm/sec | – | – | – | –
6 | COc1ccc(CO[C@H]([C@H]2O[C@@H]3SC(N(C)C)=N[C@@H]3[C@@H](O)[C@@H]2O)C(F)(F)F)cc1C(F)(F)F [Example 58, (3aR,5S,6S,7R,7aR)-2-(dimethylamino)-5-((R)-2,2,2-trifluoro-1-(4-methoxy-3-(trifluoromethyl)benzyloxy)ethyl)-5,6,7,7a-tetrahydro-3aH-pyrano[3,2-d]thiazole-6,7-diol] | – | 26.2 | – | – | 0.84 | 76.9 | –
7 | CN(C)C1=N[C@@H]2[C@@H](O)[C@H](O)[C@@H]([C@@H](OCc3ccccc3F)C(F)(F)F)O[C@@H]2S1 [Example 61, (3aR,5S,6S,7R,7aR)-2-(dimethylamino)-5-((R)-2,2,2-trifluoro-1-(2-fluorobenzyloxy)ethyl)-5,6,7,7a-tetrahydro-3aH-pyrano[3,2-d]thiazole-6,7-diol] | 1.98 | 29 | – | – | – | – | 7.73
8 | CNC1=N[C@@H]2[C@@H](O)[C@H](O)[C@@H]([C@@H](OCc3ccc(Cc4ccccc4)cc3)C(F)(F)F)O[C@@H]2S1 [Example 95, (3aR,5S,6S,7R,7aR)-5-((R)-1-(4-benzylbenzyloxy)-2,2,2-trifluoroethyl)-2-(methylamino)-5,6,7,7a-tetrahydro-3aH-pyrano[3,2-d]thiazole-6,7-diol] | – | – | <1.0 X10-6 cm/sec | 0.16 | – | – | –
9 | CN(C)C1=N[C@@H]2[C@@H](O)[C@H](O)[C@@H]([C@@H](OCc3cccnc3)C(F)(F)F)O[C@@H]2S1 [Example 42, (3aR,5S,6S,7R,7aR)-2-(dimethylamino)-5-((R)-2,2,2-trifluoro-1-(pyridin-3-ylmethoxy)ethyl)-5,6,7,7a-tetrahydro-3aH-pyrano[3,2-d]thiazole-6,7-diol] | – | 15.2 | – | – | 2.36 | 120 | –
10 | CN(C)C1=N[C@@H]2[C@@H](O)[C@H](O)[C@@H]([C@@H](OCc3ccc(OCCF)cc3)C(F)(F)F)O[C@@H]2S1 [Example 55, (3aR,5S,6S,7R,7aR)-2-(dimethylamino)-5-((R)-2,2,2-trifluoro-1-(4-(2-fluoroethoxy)benzyloxy)ethyl)-5,6,7,7a-tetrahydro-3aH-pyrano[3,2-d]thiazole-6,7-diol] | 0.65 | 27.1 | – | – | – | – | 79.5
11 | CN(C)C1=N[C@@H]2[C@@H](O)[C@H](O)[C@@H]([C@@H](OCc3ccc(Oc4ccccc4)cc3)C(F)(F)F)O[C@@H]2S1 [Example 57, (3aR,5S,6S,7R,7aR)-2-(dimethylamino)-5-((R)-2,2,2-trifluoro-1-(4-phenoxybenzyloxy)ethyl)-5,6,7,7a-tetrahydro-3aH-pyrano[3,2-d]thiazole-6,7-diol] | 1.11 | 16.4 | – | – | – | – | 62.1
12 | CNC1=N[C@@H]2[C@@H](O)[C@H](O)[C@@H]([C@@H](OCc3ccc(F)cc3)C(F)(F)F)O[C@@H]2S1 [Example 89, (3aR,5S,6S,7R,7aR)-2-(methylamino)-5-((R)-2,2,2-trifluoro-1-(4-fluorobenzyloxy)ethyl)-5,6,7,7a-tetrahydro-3aH-pyrano[3,2-d]thiazole-6,7-diol] | – | 25.4 | – | – | 1.44 | 57.4 | –
13 | CN(C)C1=N[C@@H]2[C@@H](O)[C@H](O)[C@@H]([C@@H](OCc3ccc(CCF)cc3)C(F)(F)F)O[C@@H]2S1 [Example 70, (3aR,5S,6S,7R,7aR)-2-(dimethylamino)-5-((R)-2,2,2-trifluoro-1-(4-(2-fluoroethyl)benzyloxy)ethyl)-5,6,7,7a-tetrahydro-3aH-pyrano[3,2-d]thiazole-6,7-diol] | – | 29.5 | – | – | 0.61 | 17.8 | –

Reference: US9611275B2 (priority 2012, dated 2017)
